Measurements taken from patent publication US10004718B2, “Erythropoietin expression promoter” (TOHOKU UNIVERSITY, priority 2012, dated 2018).

Experiments:
[1] = tested on: mouse erythropoietin gene promoter; assay: Luciferase reporter assay of erythropoietin gene promoter in Hep3B cells; format: cell-based; details: for effect on erythropoietin gene promoter transcriptional activity compared with HIF activator FG-4592: compound 10 μM vs FG-4592 10 μM, 20% O2; for transcription level of the erythropoietin gene promoter: compound 10 μM, 20% O2, 48 hours, vs 20% O2/DMSO
Procedure: A plasmid vector HE-mPro-luc for luciferase assay on the promoter activity of the 5′ upstream transcriptional regulatory region of the mouse erythropoietin gene was prepared by cleaving, with restriction enzymes XbaI and SacI, a region having a length from −571 to +53 bp starting at the translation initiation site of exon 1 of the mouse erythropoietin gene, and inserting this region to a luciferase reporter vector pXP2 (Nordeen S K. BioTechniques. 6: […], 1988).
The Hep3B cells were adjusted to 10×10^4 cells/well in a 24-well cell culture plate and subcultured. Under microscopy, the Hep3B cells that reached a cell density of 70 to 80% were transfected with the plasmid DNA for luciferase reporter assay. The composition of a solution for transfection was prepared by mixing 2 μg of HE-mPro-luc, 50 ng of pRh-TK (manufactured by Promega K.K.), and 2 μl of Lipofectamine 2000 (manufactured by Invitrogen Corp.) with 100 μl of OptiMEM-I (manufactured by Life Technologies, Inc./GIBCO) per well, followed by incubation at room temperature for 20 minutes. The solution was added to the Hep3B cells in the 24-well cell culture plate preincubated in 0.5 ml of serum-free OptiMEM-I medium, and then incubated for 4 hours without serum and antibiotics under conditions of 37° C. and 5% CO2/20% O2. Then, the medium was replaced with RPMI1640 common medium 1 supplemented with each of 5 types of compounds (compounds #2, 4, 5, 18, and 21) at a concentration of 10 μM, followed by further incubation for 48 hours under conditions of 37° C. and 5% CO2/20% O2. Then, the medium was replaced with 0.5 ml of serum-free PBS, and the cells were gently washed, followed by the removal of PBS by suction. This operation was carried out twice. Then, 100 μl of passive lysis buffer (manufactured by Promega K.K.) was added thereto, and the cells were lysed by mixing at room temperature for 20 minutes. Hep3B cells cultured in the absence of the compound (DMSO added [1%]) (“20% O2/DMSO” of FIG. 3) were used as a negative control. Hep3B cells cultured in the presence of an HIF activator (FG-4592 [10 μM]) (“20% O2/FG4592” of FIG. 3) and Hep3B cells cultured under hypoxia (1% O2) conditions and in the absence of the compound (DMSO added [1%]) (“1% O2/DMSO” of FIG. 3) were used as positive controls.
Dual Luciferase Reporter Assay System (manufactured by Promega K.K.) was used in the luciferase reporter assay. The amounts of firefly and Renilla luciferases were measured using a luminometer Lumat LB9507 (manufactured by BERTHOLD TECHNOLOGIES GmbH & Co. KG). The amount of Fire fly luciferase was divided by the amount of Renilla luciferase to calculate the transcriptional activity of the erythropoietin gene.

[2] = tested on: erythropoietin; assay: Erythropoietin production in vivo in mice, oral administration for 7 days; design: species or system mouse; details: 7 consecutive days, plasma 24 hours after final administration, vs corn oil, DMSO+corn oil or no administration
Procedure: A mixed solution (200 μl) of each of 4 types of compounds (compounds #4, 5, 21, and 35) (10 mg/100 μl of DMSO) (10 μl) and corn oil (190 μl) was prepared. This mixed solution (200 μl) was orally administered to each mouse (C57BL/6N 8 W, male, 21-25 g) between 15:00 to 18:00 every day using a sonde. This administration was carried out for 7 consecutive days. Mice orally given corn oil or DMSO and corn oil as well as non-administered mice were used as controls.
24 hours after the final administration, each mouse was cervically dislocated, and 500 μl of blood was collected from the heart. Then, an anticoagulant (10 μl of heparin) was added thereto, and the resulting blood was centrifuged (12000 rpm×20 min, 4° C.) to isolate plasma. The plasma concentration […] of erythropoietin was measured using a kit (Quantikine Mouse/Rat Epo Immunoassay, manufactured by R&D Systems, Inc.).

SMILES	effect on erythropoietin gene promoter transcriptional activity compared with HIF activator FG-4592 [1]	transcription level of the erythropoietin gene promoter [1]	amount of erythropoietin in the mouse blood [2]
O=C(CC(C(=O)O)c1c[nH]c2ccccc12)c1ccc(F)cc1 (stereo not drawn) [compound #4, 4-(4-Fluorophenyl)-2-(1H-indol-3-yl)-4-oxo-butanoic acid]	superior to the effect of the existing HIF activator (FG-4592)	increase the transcription level	increased
O=C(CC(C(=O)O)c1c[nH]c2ccccc12)c1ccc(F)cc1F (stereo not drawn) [compound #5, 4-(2,4-Difluorophenyl)-2-(1H-indol-3-yl)-4-oxo-butanoic acid]	superior to the effect of the existing HIF activator (FG-4592)	increase the transcription level	increased
O=C(O)C(CCCC(F)(F)C(F)(F)F)c1c[nH]c2ccccc12 (stereo not drawn) [compound #21, α-(4,4,5,5,5-Pentafluoro-1-pentyl)-3-indoleacetic acid]	superior to the effect of the existing HIF activator (FG-4592)	increase the transcription level	increased
